{"source": "patent US20060198836A1", "about": "“Method of treating hit patients with argatroban” (Smithkline Beecham Corporation, priority 2003, published 2006)", "assay_type_in_all_cases": "in vivo, human", "key": {"[1]": {"tested_on": "patient with HIT with thrombosis", "source_text": "A person experienced pregnancy-induced hypertension and sudden weight gain during the third trimester of pregnancy. Premature labor led to the delivery of twins at 31 weeks gestation. After delivery, the patient remained hypertensive. On post-partum day 7, they awoke with chest pain and shortness of breath. They were lethargic with a blood pressure of 190/96 mm Hg and heart rate 135 beats per minute.\nOn postpartum day 10, the patient was transferred to another hospital for left hemiparesis. A non-hemorrhagic right cerebral infarction was confirmed by computed tomography. During days 4 to 7 of heparin therapy, platelet counts fluctuated between 163×10^9/L and 99×10^9/L with no clear downward trend. A platelet count was not obtained on day 8. However, on day 9 of heparin therapy, the patient's right leg became ischemic and their platelet count decreased to 34×10^9/L. HIT was suspected and heparin was immediately discontinued. The patient was taken to the operating room and Fogerty balloon thrombectomy of the right superficial and profunda arteries removed a typical red, fleshy acute thrombus. The clinical diagnosis of HIT with thrombosis was confirmed by the detection of heparin/PF4 antibodies in the patient's day 9 serum (but not in their serum from day 3) using an in-vitro functional test, the serotonin release assay (SRA).\nAn alternative anticoagulant was needed for further treatment of their pulmonary embolism and to prevent further thrombosis of the right femoral artery. The direct thrombin inhibitor Argatroban was initiated at 2 mcg/kg/min and titrated to achieve an activated partial thromboplastin time (aPTT) of 1.5 to 3.0 times the patient's baseline aPTT value.\nAfter 6 days of Argatroban monotherapy and recovery of the platelet count to >100×10^9/L, warfarin was initiated concomitantly. Warfarin was started at the expected daily dose of 5 mg. On the 4th day of concomitant therapy, Argatroban infusion was held for 4 hours (to eliminate the effects of Argatroban on the INR) and the INR was rechecked to assure a therapeutic INR on warfarin alone. The INR was 2.1, which is considered therapeutic for the underlying medical condition, so the Argatroban was discontinued."}, "[2]": {"tested_on": "patient with HIT with thrombosis", "experiment": "Example 3 patient case: Argatroban with transition to warfarin, avoiding warfarin-induced skin necrosis and venous limb gangrene", "source_text": "The following patient case is an example of an appropriate transition to warfarin, because Argatroban therapy is continued for at least 5 days and until the patient's platelet count has recovered to >100×10^9/L. In addition, concomitant therapy with Argatroban and warfarin overlaps for at least 4-5 days.\nA person presented to the hospital with an acute myocardial infarction, for which they received tissue plasminogen activator and heparin. Their platelet count was 190×10^9/L on admission. They underwent coronary artery bypass grafting several days later, and heparin was continued throughout the peri-operative period. Postoperatively, the patient experienced atrial fibrillation, and warfarin was initiated. Four days postoperatively, they developed pain and discoloration of the left breast and right leg. The platelet count was 60×10^9/L and the INR was 6.1. Unfortunately, the breast and leg lesions progressed rapidly and the patient ultimately required a mastectomy and below the knee amputation. Five weeks later, they were readmitted with upper extremity swelling. The platelet count was 126×10^9/L on readmission. Ultrasound confirmed axillary/subclavian and femoral venous thromboses, for which heparin therapy was re-initiated. The platelet count fell from 126×10^9/L to 26×10^9/L after 3 days of intravenous heparin, and the diagnosis of HIT with thrombosis was made. The patient's initial breast and leg lesions are examples of warfarin-induced skin necrosis and venous limb gangrene, respectively, which are possible clinical manifestations of HIT. The patient was started on Argatroban 2 mcg/kg/min and the dose was titrated to maintain aPTT values between 1.5 and 3 times their baseline aPTT. […] Argatroban was continued for 11 days. On day 6 of Argatroban therapy, warfarin was initiated at the estimated daily dose of 5 mg. At that time, the platelet count was 150×10^9/L. Concomitant therapy with Argatroban and warfarin was continued for […] in accordance with the recommended overlap of 4 to 5 days. On the 5th day of concomitant therapy, the Argatroban was held for 6 hours and the INR value reflecting warfarin therapy alone was checked. The INR was 2.9 and the Argatroban infusion was subsequently discontinued. • See e.g.: • Warkentin T E, Elavathil L J, Hayward C P M, et al. The pathogenesis of venous limb gangrene associated with heparin-induced thrombocytopenia. Ann Intern Med. 1997; 127:804-812. • Smythe M A, Warkentin T E, Stephens J L, et al. Venous limb gangrene during overlapping therapy with warfarin and a direct thrombin inhibitor for immune heparin-induced thrombocytopenia. Am J Hematol 2002; 71:50-52. • Srinivasan A F, Rice L, Bartholomew J R, et al. Warfarin-induced skin necrosis and venous limb gangrene in the setting of heparin-induced thrombocytopenia. […]"}, "patients with HIT": {"tested_on": "patients with HIT", "experiment": "Clinical trial of 304 patients with HIT with or without thrombosis who received argatroban; outcome by platelet count on day of argatroban cessation", "source_text": "In a clinical trial of 304 patients with HIT with or without thrombosis who received argatroban, 165 patients with active HIT had platelet count data available for the day of argatroban cessation. […] Therefore, we recommend these approaches for refining the existing method of therapy in patients with HIT receiving Argatroban."}, "[3]": {"tested_on": "patient with HIT with thrombosis (HITT)", "experiment": "Example 1 patient case: Argatroban monotherapy in HIT with thrombosis, serial platelet counts", "procedure": "The patient is a person with a history of hypertension and hyperlipidemia who presented to the emergency department (ED) complaining of chest pain. […] The patient was admitted to the Coronary Care Unit and was treated with aspirin, intravenous nitroglycerin, metoprolol, and intravenous heparin. The platelet count on admission was 212×10^9/L. Serial cardiac enzymes and troponin concentrations were negative for a myocardial infarction. […] Coronary artery bypass grafting was performed 2 days later with an uneventful postoperative course. They were discharged from the hospital 7 days after the surgery in good condition and their platelet count was 136×10^9/L. One week later, the patient returned to the ED complaining of the acute onset of a cold and painful swollen left leg. Their medications included aspirin 325 mg daily, metoprolol 75 mg twice daily, NitroDur 20 mg daily and atorvastatin 20 mg daily. The physical examination was normal with the exception of mild hypertension and a cold, swollen left leg with blue discoloration from the knee down. In addition, the left popliteal pulse was faint and the left ankle pulse was non-palpable. […] Intravenous heparin was started and the patient was sent to the operating room for emergency surgery. A femoro-popliteal bypass was performed with a graft and there was an initial return of arterial blood flow to the lower leg. However, before the incision was closed, the graft re-occluded. The graft was opened and explored with an embolectomy catheter. A large amount of whitish granular material was found and subsequently removed from the distal end of the graft. Pulses returned to the lower leg and the incision was closed. By the time the closure was complete, the graft had again re-occluded. The finding of a platelet-rich “white clot” during this surgery along with thrombocytopenia alerted physicians to suspect HIT with thrombosis (HITT). Heparin was immediately discontinued and the DTI Argatroban was initiated (at 2 mcg/kg/min) that evening (day 1 of Argatroban). On the following day, the patient's left lower leg remained cold, blue and pulseless. They were transferred to another hospital where an amputation was performed. Argatroban was continued for 10 days. The platelet count began improving with the following serial platelet counts: 62×10^9/L on day 4, 78×10^9/L on day 6, 110×10^9/L on day 8 and 180×10^9/L on day 10. The patient was measured for a prosthetic leg and they underwent intense physical therapy for 6 months."}}, "note": "Read-outs that look alike come from different tables or passages of the source."}
{"molecule": "heparin", "values": [{"measurement": "platelet count", "setting": "[1]; human, in vivo", "value": "3.4e+10", "unit": "L⁻¹"}, {"measurement": "platelet count", "setting": "[2]; human, in vivo, iv", "value": "2.6e+10", "unit": "L⁻¹"}]}
{"molecule": "CC(=O)CC(c1ccccc1)c1c(O)c2ccccc2oc1=O", "note": "(stereo not shown) [warfarin]", "values": [{"measurement": "INR on warfarin alone", "setting": "[1]; warfarin 5 mg daily, 4th day of concomitant therapy, Argatroban infusion held for 4 hours", "value": 2.1}, {"measurement": "INR", "setting": "[2]; four days postoperatively, warfarin initiated during heparin exposure, onset of skin necrosis and venous limb gangrene, platelet count 60×10^9/L", "value": 6.1}, {"measurement": "INR value reflecting warfarin therapy alone", "setting": "[2]; warfarin 5 mg daily, 5th day of concomitant therapy, Argatroban held for 6 hours", "value": 2.9}]}
{"molecule": "CC1CNc2c(cccc2S(=O)(=O)N[C@@H](CCCNC(=N)N)C(=O)N2CC[C@@H](C)C[C@@H]2C(=O)O)C1", "note": "(stereo partly shown) [Argatroban]", "values": [{"measurement": "patients who experienced the composite endpoint of either death, amputation or new thrombosis", "setting": "patients with HIT; 41 patients with platelet count <100×10^9/L on the day argatroban therapy was discontinued", "value": 61, "unit": "%"}, {"measurement": "patients who experienced the composite endpoint of either death, amputation or new thrombosis", "setting": "patients with HIT; 124 patients with platelet count >100×10^9/L on the day argatroban therapy was discontinued", "value": 31.5, "unit": "%"}, {"measurement": "platelet count", "setting": "[3]; day 4 of Argatroban, initiated at 2 mcg/kg/min, 41×10^9/L before", "value": "6.2e+10", "unit": "L⁻¹"}, {"measurement": "platelet count", "setting": "[3]; day 6 of Argatroban", "value": "7.8e+10", "unit": "L⁻¹"}, {"measurement": "platelet count", "setting": "[3]; day 8 of Argatroban", "value": "1.1e+11", "unit": "L⁻¹"}, {"measurement": "platelet count", "setting": "[3]; day 10 of Argatroban", "value": "1.8e+11", "unit": "L⁻¹"}, {"measurement": "recovery of the platelet count", "setting": "[1]; after 6 days of Argatroban monotherapy", "value": "> 1e+11", "unit": "L⁻¹"}, {"measurement": "platelet count", "setting": "[1]; hospital day 10, day 2 of Argatroban therapy, 34 × 10^9/L prior to initiation", "value": "5.5e+10", "unit": "L⁻¹"}, {"measurement": "platelet count", "setting": "[1]; hospital day 13, day 5 of Argatroban therapy", "value": "1.1e+11", "unit": "L⁻¹"}, {"measurement": "platelet count", "setting": "[1]; hospital day 14, day 6 of Argatroban therapy", "value": "1.6e+11", "unit": "L⁻¹"}, {"measurement": "platelet count", "setting": "[1]; hospital day 16, day 8 of Argatroban therapy (warfarin concomitant)", "value": "1.49e+11", "unit": "L⁻¹"}, {"measurement": "platelet count", "setting": "[1]; hospital day 18, day 10 of Argatroban therapy (warfarin concomitant)", "value": "2.1e+11", "unit": "L⁻¹"}, {"measurement": "platelet count", "setting": "[1]; hospital day 20, day 12 of Argatroban therapy", "value": "2.8e+11", "unit": "L⁻¹"}, {"measurement": "platelet count", "setting": "[2]; day 6 of Argatroban therapy, when warfarin was initiated, 26×10^9/L before Argatroban", "value": "1.5e+11", "unit": "L⁻¹"}]}
